{
  "source": "patent US11026943B2",
  "about": "“Aminoquinoline derivatives and uses thereof” (UNIVERSITY OF DELHI, priority 2012, dated 2021)",
  "key": {"[1]": {"tested_on": "primary cultures of rat mesencephalic DA neurons", "test": "6-OHDA-induced death in primary mesencephalic DA neurons (TH+ count, [3H]DA uptake)", "type": "cell-based", "conditions": "number of TH+ neurons and DA uptake; 20 μM 6-OHDA for 24 hr", "experimental": "Control DA neurons were treated with the above medium in the presence of a dopamine uptake blocker, 10 μM mazindol (Sigma). Cells were then washed with ice-cold Krebs Ringers solution and lysed with 0.5 M NaOH. Radioactivity was quantified by a liquid scintillation counter (Beckman, Fullerton, Calif.).\nTo prepare primary cultures of DA neurons, the ventral mesencephalon was removed from 14 day gestation Sprague Dawley rat embryo (Charles River, Cambridge, Mass.). Tissues were incubated with 0.01% trypsin in MEM (MEM, Invitrogen) for 10 min at 37° C. and triturated using a constricted Pasteur pipette. DA neurons were plated at 1.0×10^5 cells per 9 mm diameter glass cover slip precoated with 100 μg/ml poly-D-lysine (Sigma, St. Louis, Mo.) and 4 μg/ml laminin (Invitrogen). DA neurons were maintained at 37° C. in a humidified 5% CO2 atmosphere in minimum essential medium supplemented with 10% FBS (Hyclone), 2 mM glutamine and 6.0 g/l glucose. […]"}, "[2]": {"tested_on": "neural precursor cells from E14 rat cortices", "test": "In vitro differentiation of Nurr1-transduced neural precursor cells into TH+ DA neurons", "type": "cell-based", "procedure": "Error bars represent standard deviations.\nNeural precursor cells (NPCs) from dissection of rat embryos days 14 cortices (E14) were proliferated in N2 medium supplemented with 20 ng/mL basic fibroblast growth factor (bFGF; R&D Systems, Minneapolis, Minn., USA). Following 3-4 days of bFGF-expansion, NPCs were dissociated in Ca^2+/Mg^2+-free Hank's balanced salt solution (CMF-HBSS, Invitrogen, Carlsbad, Calif.) and re-plated onto coverslips (12 mm diameter; Carolina Biological Supply Company, Burlington, N.C.) at 32,000 cells/coverslip pre-coated with poly-L-ornithine (PLO; […], Sigma, St Louis, Mo.) at 37° C. overnight followed by fibronectin (FN; […], Sigma) overnight. Prior to drug treatment, NPCs were transduced with Nurr1-expressing retrovirus of MOI 5 in the presence of polybrene (1 μg/ml, Sigma), cultured overnight in N2, and then differentiated. Getting started chemical treatment (every day for 2 hours), bFGF was not added anymore^3.\nCells were fixed in 4% paraformaldehyde (PFA) for 20 min, washed and then incubated with blocking buffer [PBS, 10% goat serum (Invitrogen), 0.3% Triton X-100 (Sigma)] for 1 hour. […] Following washes with PBS, appropriate fluorescence-tagged secondary antibodies (Jackson Immunoresearch Laboratories, West Grove, Pa.) were used for visualization. […]"}, "[3]": {"target": "T1, Nurr1 (Mus musculus, UniProt Q06219)", "T1 construct": "Full-length mouse Nurr1cDNA was amplified by RT-PCR from pSV40Nurr1; expressed in transfected cells; host or cells: SK-N-BE(2)C human neuroblastoma cells", "T1 sequence (Q06219 whole entry)": "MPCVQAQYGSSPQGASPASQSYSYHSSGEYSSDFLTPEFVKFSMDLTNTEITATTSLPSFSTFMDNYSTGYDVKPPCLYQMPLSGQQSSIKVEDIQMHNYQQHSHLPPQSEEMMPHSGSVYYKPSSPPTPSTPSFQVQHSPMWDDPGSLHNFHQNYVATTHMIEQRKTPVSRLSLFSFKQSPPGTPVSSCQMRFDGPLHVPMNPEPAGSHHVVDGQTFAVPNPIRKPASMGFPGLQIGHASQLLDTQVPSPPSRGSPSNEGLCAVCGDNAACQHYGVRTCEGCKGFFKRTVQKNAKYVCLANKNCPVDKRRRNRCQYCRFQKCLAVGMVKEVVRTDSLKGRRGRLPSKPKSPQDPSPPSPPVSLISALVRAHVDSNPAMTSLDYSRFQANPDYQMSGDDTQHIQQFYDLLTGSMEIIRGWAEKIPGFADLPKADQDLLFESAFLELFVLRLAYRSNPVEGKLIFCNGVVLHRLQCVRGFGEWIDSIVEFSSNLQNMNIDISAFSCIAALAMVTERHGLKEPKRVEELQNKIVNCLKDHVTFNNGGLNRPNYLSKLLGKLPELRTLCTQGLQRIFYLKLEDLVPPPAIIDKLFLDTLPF", "test": "High-throughput cell-based screen of Nurr1-dependent TH promoter activation", "conditions": "library of 960 FDA-approved drugs", "text": "The pTH2600LUC reporter construct contains the 2.6 kb upstream sequences of the rat tyrosine hydroxylase gene in front of a firefly luciferase gene in pGL3-basic vector. A Nurr1-expression plasmid, pSV40Nurr1, was kindly provided by Dr Orla M. Conneely at Baylor College of Medicine (Houston, Tex., USA). Full-length mouse Nurr1cDNA was amplified by RT-PCR from pSV40Nurr1 using forward 5′-[sequence]-3′ (SEQ ID NO: 1) and reverse 5′-[sequence]-3′ (SEQ ID NO: 2) oligonucleotides.\n(§1) Human neuroblastoma SK-N-BE(2)C cells were maintained in Dulbecco's modified Eagle's medium (DMEM) supplemented with 10% fetal bovine serum. All culture media contained 100 units/ml penicillin and 100 μg/ml streptomycin. For transfection, cells were plated at 1.5×10^5 cells/well in the DMEM media without antibiotic into 24-well plates 1 day prior to transfection. Transfections were carried out by the Lipofectamine plus (Invitrogen) according to the manufacture's protocol. Total DNA amount was 0.5 μg per well with 0.1 μg of pRSV-β-gal as an internal control. 6 hours after transfection, compounds in the DMEM media with 1% charcoal-stripped fetal calf serum was added and incubated overnight. […] Then equal volume of firefly luciferase substrate was added and the luciferase activity was measured using a Luminometer plate reader and normalized for beta-galactosidase activity."}, "[4]": {"tested_on": "PC12 cells", "test": "6-OHDA toxicity in PC12 cells (MTT reduction assay)", "type": "cell-based, rat", "procedure": "Cell viabilities were determined by the conventional MTT reduction assay. After incubation for indicated times, cells were treated with the MTT solution (final concentration, 1 mg/ml, Sigma) for 1 h. Formazan grains formed in intact cells were solubilized with MTT Solubilization. Solution containing 10% Triton X-100 plus 0.1 N HCl in anhydrous isopropanol for 24 h and then absorbance at 570 nm was measured with a microplate reader (Molecular Devices, Menlo Park, Calif.)."}, "[5]": {"target": "T2, Nurr1 interaction with SRC-1 and SRC-3 (Mus musculus, UniProt Q06219)", "T2 construct": "the C-terminal myc-tagged full-length Nurr1; His (from vector pCDNA3.1/myc-His) (C); expressed in transfected cells; host or cells: SK-N-BE(2)C human neuroblastoma cells", "T2 sequence (Q06219 whole entry)": "as above", "test": "Co-immunoprecipitation of Nurr1 with SRC-1/SRC-3 in SK-N-BE(2)C cells", "type": "cell-based", "conditions": "30 μM AQ or 100 μM CQ for 16 hours"}, "[6]": {"target": "Nurr1 LBD (Mus musculus, UniProt Q06219)", "sequence (Q06219 328-598)": "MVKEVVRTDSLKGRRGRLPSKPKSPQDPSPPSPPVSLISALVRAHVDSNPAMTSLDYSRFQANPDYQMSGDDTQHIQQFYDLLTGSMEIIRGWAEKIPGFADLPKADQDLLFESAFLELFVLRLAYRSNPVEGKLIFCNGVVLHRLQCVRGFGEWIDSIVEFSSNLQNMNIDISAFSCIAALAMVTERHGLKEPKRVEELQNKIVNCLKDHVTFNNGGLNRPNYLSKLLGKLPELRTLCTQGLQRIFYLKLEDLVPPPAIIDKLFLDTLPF", "test": "Nurr1 LBD GAL4 reporter assay (pSVGAL(DBD)-N(LBD), p8xGAL-Luc) in SK-N-BE(2)C cells", "type": "cell-based", "conditions": "read-out: EC50 Nurr1 LBD-based reporter activity", "excerpt": "The pTH2600LUC reporter construct contains the 2.6 kb upstream sequences of the rat tyrosine hydroxylase gene in front of a firefly luciferase gene in pGL3-basic vector. A Nurr1-expression plasmid, pSV40Nurr1, was kindly provided by Dr Orla M. Conneely at Baylor College of Medicine (Houston, Tex., USA). […] The VP16/SRC1 and VP16/SRC3 hybrid were constructed by inserting the transactivation domain of the VP16 protein upstream of SRC1 and SRC3, respectively. […] The recombinant proteins were purified by Ni-NTA column chromatography (Qiagen) according to the manufacturer's instruction. The integrity of all sequences was verified by DNA sequence analyses.\nHuman neuroblastoma SK-N-BE(2)C cells were maintained in Dulbecco's modified Eagle's medium (DMEM) supplemented with 10% fetal bovine serum. All culture media contained 100 units/ml penicillin and 100 μg/ml streptomycin. For transfection, cells were plated at 1.5×10^5 cells/well in the DMEM media without antibiotic into 24-well plates 1 day prior to transfection. Transfections were carried out by the Lipofectamine plus (Invitrogen) according to the manufacture's protocol. Total DNA amount was 0.5 μg per well with 0.1 μg of pRSV-β-gal as an internal control. 6 hours after transfection, compounds in the DMEM media with 1% charcoal-stripped fetal calf serum was added and incubated overnight. Cells from each well were lysed with 100 μl of lysis buffer, which contains 25 mM Tris-phosphate (pH 7.8), 2 mM DTT, 2 mM CDTA (1,2-diaminocyclohexane-N,N,N′,N′-tetraacetic acid), 10% glycerol, and 1% Triton X-100. Then equal volume of firefly luciferase substrate was added and the luciferase activity was measured using a Luminometer plate reader and normalized for beta-galactosidase activity."}, "[7]": {"target": "T3, Nurr1 LBD with SRC-1/SRC-3 (Mus musculus, UniProt Q06219)", "T3 construct": "The Nurr1 LBD fragment from amino acid position 328 to amino acid position 598 was PCR-amplified; expressed in transfected cells; host or cells: SK-N-BE(2)C human neuroblastoma cells", "T3 sequence (Q06219 328-598)": "as above", "test": "Nurr1 LBD transactivation with VP16-SRC1/VP16-SRC3 overexpression", "type": "cell-based", "conditions": "30 μM AQ or 100 μM CQ for 16 hours"}, "[8]": {"tested_on": "LBDs of Nur77, GR, LXR, RXR, PPARα, PPARγ", "test": "Target selectivity: GAL4-LBD reporter assays of other nuclear receptors", "type": "cell-based", "conditions": "FIG. 19; 30 μM AQ", "experimental": "The positive reactivity of these NR constructs was confirmed by the known activators (2 nM dexamethasone, 20 nM retinoic acid, 2 μM GW3965, 50 nM GW7647, and 5 nM GW1929 for GR, RXR, LXR, PPARα, and PPARγ, respectively). The basal level of transcriptional activity was normalized to 1. Bars represent means±SEM from three independent experiments.\nas §1"}},
  "data": [
    {"smiles": "CCN(CC)Cc1cc(Nc2ccnc3cc(Cl)ccc23)ccc1O", "note": "[AQ, amodiaquine]", "values": [
      {"measurement": "6-OHDA-induced death in primary DA neurons", "setting": "[1]", "value": "significantly inhibit"},
      {"measurement": "number of TH+ neurons generated from neural stem cells", "setting": "[2]", "value": "enhanced"},
      {"measurement": "mRNA expression levels of TH, DAT, VMAT and AADC genes", "setting": "[2]; in vitro differentiation for 9 d", "value": "enhanced"},
      {"measurement": "screen outcome", "setting": "[3]", "value": "hit compounds"},
      {"measurement": "neuroprotective effect in PC12 cells", "setting": "[4]", "value": "neuroprotective effect"},
      {"measurement": "Nurr1 interactions with SRC-1 and SRC-3", "setting": "[5]", "value": "significantly enhanced"},
      {"measurement": "EC50", "setting": "[6]", "value": "~20", "unit": "µM"},
      {"measurement": "Nurr1 transcriptional function with SRC-1/SRC-3 overexpression", "setting": "[7]", "value": "further enhanced"},
      {"measurement": "transcriptional activity of other nuclear receptors", "setting": "[8]", "value": "unable to induce"}
    ]}
  ]
}
